From patent publication US12158399B2, “CaMKK2 inhibitor compositions and methods of using the same” (Duke University, priority 2016, dated 2024)

How the values were obtained:
bone marrow derived MDSC = test: In vitro MDSC generation from bone marrow with H2O2 or antioxidants; format: cell-based, mouse; conditions: added Day 0 and Day 3; 0.001 mM H2O2, 20 μM MitoTEMPO, 20 μM BHA
Text: To further study how ROS regulates MDSC differentiation, low dose of H2O2 and two commonly used antioxidants, MitoTEMPO and Butylated hydroxyanisole (BHA), were separately added to the culture media during MDSC in vitro generation. At basal condition, KO marrow generated less M-MDSC cells while differentiated more into Ly6C−CD11c+I-A+ mature dendritic cells compared to WT ones. […] The higher level of ROS in CaMKK2 KO MDSCs limited M-MDSC accumulation by facilitating the myeloid cell differentiation.
Bone marrow cells were prepared as described before. Cells after RBC lysis were seeded to 6-well plates (Coring, NY, USA) at 1×10^6 per well in 5 ml DMEM (Gibco, MA, USA) supplied with 10% FBS, 2 mM L-glutamine, 1.5 g/L sodium bicarbonate, 10 mM HEPES, 1.0 mM sodium pyruvate (all from Gibco, MA, USA), 10% fetal bovine serum (Hyclone, MA, USA), 40 nM recombinant mouse GM-CSF and 40 nM recombinant mouse IL-6 (Biolegend, CA, USA), and with or without 50% E.G7 supernatant. The supernatant was half-changed on Day 3. The floating cells were collected on Day 5 and enriched by anti-mouse Gr-1 Microbeads (Miltenyi, Bergisch Gladbach, Germany). The cells with the purity >90% were used. In some experiments as indicated, the cells were stained with APC anti-mouse Gr-1, PE anti-mouse/human CD11b (Biolegend, CA, USA). Double positive cells were sorted with BD FACS Aria II cell sorter (BD, NJ, USA).
For MDSC and BMDC, only floating cells were collected. 1×10^6 cells were spun down in BD Falcon round-bottom polystyrene tubes (BD, NY, USA). The cell pellet was incubated with 50 μl PBS with 2% FBS with FITC anti-mouse CD11c, PE anti-mouse/human CD11b, PE-Cy7 anti-mouse Ly6G, APC anti-mouse F4/80, APC-Cy7 anti-mouse I-A (all from BioLegend, CA, USA), PerCP Cy5.5 anti-mouse Ly6C, and Fixable Viability Dye eFluor® 450 (eBioscience, CA, USA) at 4° C. for 15 min. Cells were washed once with 2 ml PBS with 2% FBS and fixed with 200 μl 1.5% PFA in 4° C. till analysis.

E0771 cells [1] = test: Orthotopic E0771 mammary tumor growth; format: in vivo, mouse; conditions: orthotopic graft in syngeneic wildtype mice; STO-609 IP 3-times/week
Experimental: (§1) E0771, 4T1 and Met1 grafts: 200,000 of the indicated cells were grafted orthotopically into the mammary fat pad of mice. 4T1 and Met1 cells were grafted in 50% matrigel. Resulting tumors were assessed by direct caliper measurement. To get sizable tumors in Camkk2−/− mice for IHC and flow cytometry studies, a higher number of E0771 (4×10^5) where grafted. This information has been reported in the corresponding figures.
(§2) These drugs were administered intraperitoneally daily. […] GSK treatment was initiated at post-day 2.

4T1 cells = test: Orthotopic 4T1 mammary tumor growth; format: in vivo, mouse; conditions: syngeneic wildtype mice; IP 3-times/week
Experimental: as §1
(§3) […] […] GSK treatment was initiated at post-day 2.

E.G7 tumor = test: Flow cytometry of tumors and spleens of E.G7 tumor bearing mice; format: in vivo, mouse; conditions: vs DMSO
Experimental: The removed tumors were further minced with a surgical scalpel. The tissue were added to 5 ml HBSS w/Ca^2+ and Mg^2+ (ThermoFisher Scientific, MA, USA) supplied with collagenase 2 mg/ml and DNase 0.1 mg/ml (Roche, Basel, Switzerland) in gentleMACS C tubes and dissecting with gentleMACS dissociator (Miltenyi, Bergisch Gladbach, Germany). The samples were incubated in 37° C. for 15 min and passed through the 70 μm cell strainers (Coring, NY, USA). Cells were washed twice in PBS w/2% FBS before staining.
For myeloid cells staining, 5×10^6 cells were incubated with FITC anti-mouse CD11c, PE anti-mouse/human CD11b, PE-Cy7 anti-mouse Ly6G, APC anti-mouse F4/80 (all from BioLegend, CA, USA), PerCpCy5.5 anti-mouse Ly6C, Fixable Viability Dye eFluor® 450 (eBioscience, CA, USA) at 4° C. for 15 min in dark and washed with PBS w/2% FBS. The stained cells were analyzed using a BD FACSCanto flow cytometer (BD, NJ, USA). Data is analyzed using FlowJo (TreeStar, OR, USA).

E0771 tumors = test: Flow cytometry of tumor-associated myeloid and lymphoid cells in E0771 tumors; format: in vivo, mouse; conditions: STO-609 vs vehicle treated mice
Experimental: Tumors were removed from mice and minced with a surgical scalpel. Minced tissues were added to 5 ml HBSS containing Ca^2+ and Mg^2+ (ThermoFisher Scientific, MA, USA), and supplied with collagenase 2 mg/ml and DNase 0.1 mg/ml (Roche, Basel, Switzerland). Subsequently, they were transferred in gentleMACS C tubes, dissected with gentleMACS dissociator (Miltenyi, Bergisch Gladbach, Germany) and incubated for […] at 37° C. At the end of this incubation, tumors were dissected again with gentleMACS dissociator, and cell suspension passed through 70 μm-cell strainers (Coring, NY, USA), washed twice in PBS w/2% FBS and used for FACS analysis.
Staining of tumor-infiltrating E0771 tumors: 5×10^6 cells suspension from dissected tumors were surface stained with APC Cy7-CD3, PE-CD8, PE Cy7-CD4, APC PD-1 (all from BioLegend, CA, USA). Cells were incubated for 15 min at 4° C., washed with PBS-2% FCS. PerCP/Cy5.5 PD-1 antibody (BioLegend, CA, USA) was used for intracellular staining on fixed and permeabilized cells, according with manufacture's protocol (BioLegend). For myeloid cells staining, cells were incubated with PE anti-mouse/human CD11b, PE-Cy7 anti-mouse Ly6G, APC anti-mouse F4/80 (all from BioLegend), PerCpCy5.5 anti-mouse Ly6C, APC Cy7-I-A and Fixable Viability Dye eFluor 450 (eBioscience, CA, USA) at 4° C. for 15 min in dark. Subsequently, cells were washed with PBS w/2% FBS and analyzed by FACS. Bone marrow-derived macrophages (1×10^6) were stained with PE anti-mouse/human CD11b, APC anti-mouse F4/80 (BioLegend), APC Cy7-I-A and Fixable Viability Dye eFluor 450 (eBioscience). The stained cells were analyzed using a BD FACSCanto flow cytometer (BD, NJ, USA). Data is analyzed using FlowJo (TreeStar, OR, USA).

Met1 cells = test: Orthotopic Met1 mammary tumor growth; format: in vivo, mouse; conditions: syngeneic wildtype mice; IP 100 moles/Kg body weight 3-times/week
Experimental: as §1, §3

E.G7 cells = test: E.G7 lymphoma flank tumor growth under STO-609 treatment; format: in vivo, mouse; conditions: C57BL/6 mice, peritoneal injection every 2-3 days, vs DMSO; p<0.001
Experimental: Flank Tumor Model 1×10^5 E.G7 cells were suspended in 100 μl PBS and implanted subcutaneously to the right side flank of the mice. Tumors were monitored using bioluminescence imaging each week. Tumor sizes were measured with calibrator every 3-4 days and calculated as: Length×Width×Width/2. In some experiments 5×10^5 cells were used as indicated. Mice were sacrificed when tumor reached 2 cm^3. ELISpot Analysis
STO-609 was purchased from TORIS Bioscience (Bristol, UK). The C57BL/6 mice were purchased from the Jackson Laboratory (CA, USA). The mice were inoculated with 5×10^5 E.G7 cells to the right flank subcutaneously on day 0. On day 7, the tumor growth was measured using bioluminescent imaging. All the mice with visible tumor under luciferin detection were randomized into STO-609 treatment group or DMSO control group. […] The tumor size was monitored using a calibrator every 3-4 days. The experiment was terminated when the tumor reached 2 cm^3.

E0771 cells [2] = test: E0771 tumor growth in CD8+ T-cell depleted Camkk2-/- mice; format: in vivo, mouse; conditions: anti-CD8 treated Camkk2-/- mice, STO-609 vs vehicle
Experimental: as §1, §2
To deplete CD8+ cells, mice were injected intra-peritoneally with anti-mouse CD8 monoclonal antibody or its IgG control isotype (BioXCell, NH, USA) each at 200 μl at the concentration of 1 mg/ml 4 days and 1 day before tumor inoculation, and every 3 days after tumor cell injection. The effect of CD8 depletion was monitored by flow cytometry using 50 μl peripheral blood staining with APC anti-mouse CD8, APC-Cy7 anti-mouse CD45.2 (BioLegend) at the same time.

COc1ccc(O)c(C(C)(C)C)c1 [BHA, Butylated hydroxyanisole]
M-MDSC number / accumulation (bone marrow derived MDSC): same phenomenon was also observed
differentiation towards Ly6C-IA+CD11c+ dendritic cells (bone marrow derived MDSC): same phenomenon was also observed

CCCc1ccnc2[nH]cc(-c3ccc(C(=O)N[C@@H](CO)c4ccccc4)cc3)c12 [GSKi]
E0771 mammary tumor growth (tumor volume) (E0771 cells [1]): inhibited

OO [H2O2]
M-MDSC number / accumulation (bone marrow derived MDSC): significantly decreased
differentiation towards Ly6C-IA+CD11c+ dendritic cells (bone marrow derived MDSC): increased both the count and percentage

CC1(C)CC(NC(=O)C[P+](c2ccccc2)(c2ccccc2)c2ccccc2)CC(C)(C)N1[O] [MitoTEMPO]
M-MDSC number / accumulation (bone marrow derived MDSC): significantly induced M-MDSC accumulation
differentiation towards Ly6C-IA+CD11c+ dendritic cells (bone marrow derived MDSC): decreased the differentiation

O=C(O)c1ccc2c3c1cccc3c(=O)n1c3ccccc3nc21 [STO-609]
4T1 mammary tumor growth (tumor volume) (4T1 cells): inhibited
E0771 mammary tumor growth (tumor volume) (E0771 cells [1]): antitumor activity
percentage of CD3 in the tumors (E.G7 tumor; E.G7 tumors, p<0.05): significantly higher
percentage of M-MDSC in the spleens (E.G7 tumor; Ly6C+ in CD11b+ population, p<0.001): much lower
CD4+ T cells in E0771 tumors (E0771 tumors): promoting accumulation
CD8+ T cells in E0771 tumors (E0771 tumors): promoting accumulation
MHCII I-A high macrophages in E0771 tumors (E0771 tumors): promoting accumulation
NK-T cells in E0771 tumors (E0771 tumors): promoting accumulation
Met1 mammary tumor growth (tumor volume) (Met1 cells): inhibited
lymphoma growth (E.G7 tumor size) (E.G7 cells): significantly suppressed
E0771 tumor growth in CD8+ T-cell depleted CamKK2-/- mice (E0771 cells [2]): without effect
